pIC50: −log10 of the molar value. Where a name gives a salt, the structure may show the parent alone.
Key:
Type in all cases: biochemical
human FLT4 = target: T1, human FLT4 (Homo sapiens, UniProt P35916); assay: FLT4 kinase assay (DELFIA enzyme inhibition); details: read-out: FLT4 IC50
T1 construct: a construct expressing the human FLT4 (789-1207) with an amino terminal GST tag; host or cells: Sf9 insect cells (baculovirus)
Procedure, shortened: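 Read-out is DELFIA: biotinylated MET Tyr1253-derived peptide captured on Neutravidin, phosphotyrosine detected by Eu-antibody time-resolved fluorescence. Enzyme is Sf9-expressed GST-FLT4 (789-1207), reacting 30 min at room temperature before EDTA stop. IC50 derived from plotted % inhibition.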

human FLT3 = target: T2, human FLT3 (Homo sapiens, UniProt P36888); assay: FLT3 kinase assay (DELFIA enzyme inhibition)
T2 construct: a construct expressing the human FLT3 (564-993) with an amino terminal GST tag; host or cells: Sf9 insect cells (baculovirus)
T2 sequence (P36888 564-993): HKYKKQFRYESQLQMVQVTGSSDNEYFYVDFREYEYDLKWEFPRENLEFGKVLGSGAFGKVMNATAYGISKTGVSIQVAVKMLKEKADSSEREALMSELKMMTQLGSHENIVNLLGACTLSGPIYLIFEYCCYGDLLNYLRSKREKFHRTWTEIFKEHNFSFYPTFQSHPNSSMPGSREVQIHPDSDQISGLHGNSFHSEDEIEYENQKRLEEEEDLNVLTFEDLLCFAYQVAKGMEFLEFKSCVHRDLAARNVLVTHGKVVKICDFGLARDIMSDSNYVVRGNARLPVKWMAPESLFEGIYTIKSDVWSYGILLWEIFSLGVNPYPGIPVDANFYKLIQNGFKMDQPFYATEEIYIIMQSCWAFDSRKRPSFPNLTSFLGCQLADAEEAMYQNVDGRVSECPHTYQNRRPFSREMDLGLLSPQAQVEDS
Procedure, shortened: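 GST-tagged human FLT3 (564-993), expressed in sf9 cells, phosphorylated a biotinylated Gastrin Precursor (Tyr 87)-derived peptide for 30 min at room temperature before EDTA stop. The captured peptide was detected by Eu-labelled anti-phosphotyrosine DELFIA time-resolved fluorescence. IC50 was derived from % inhibition curves.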

human Aurora A = target: T3, human Aurora A (Homo sapiens, UniProt O14965); assay: Aurora A kinase assay (DELFIA enzyme inhibition); details: read-out: Aurora A IC50
T3 construct: Histidine tag (N); host or cells: Sf9 insect cells (baculovirus)
T3 sequence (O14965 1-403): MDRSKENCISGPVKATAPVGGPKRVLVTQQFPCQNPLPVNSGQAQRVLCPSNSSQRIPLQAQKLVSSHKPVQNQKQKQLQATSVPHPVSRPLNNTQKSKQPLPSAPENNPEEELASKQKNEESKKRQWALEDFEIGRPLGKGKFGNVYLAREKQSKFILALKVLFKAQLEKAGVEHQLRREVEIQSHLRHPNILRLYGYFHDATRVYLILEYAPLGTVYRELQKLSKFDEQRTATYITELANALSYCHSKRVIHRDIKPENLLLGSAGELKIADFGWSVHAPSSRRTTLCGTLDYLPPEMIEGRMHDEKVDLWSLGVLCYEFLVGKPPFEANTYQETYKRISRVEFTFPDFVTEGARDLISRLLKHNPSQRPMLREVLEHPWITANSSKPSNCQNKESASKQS
Procedure, shortened: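 DELFIA read-out (time-resolved Eu fluorescence, 620 nm emission) after Neutravidin capture of biotinylated peptide substrate and antibody detection. Reaction: Ni-agarose-purified Aurora A, 30 min at room temperature, stopped with 100 mM EDTA.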

T1 sequence (P35916 789-1207): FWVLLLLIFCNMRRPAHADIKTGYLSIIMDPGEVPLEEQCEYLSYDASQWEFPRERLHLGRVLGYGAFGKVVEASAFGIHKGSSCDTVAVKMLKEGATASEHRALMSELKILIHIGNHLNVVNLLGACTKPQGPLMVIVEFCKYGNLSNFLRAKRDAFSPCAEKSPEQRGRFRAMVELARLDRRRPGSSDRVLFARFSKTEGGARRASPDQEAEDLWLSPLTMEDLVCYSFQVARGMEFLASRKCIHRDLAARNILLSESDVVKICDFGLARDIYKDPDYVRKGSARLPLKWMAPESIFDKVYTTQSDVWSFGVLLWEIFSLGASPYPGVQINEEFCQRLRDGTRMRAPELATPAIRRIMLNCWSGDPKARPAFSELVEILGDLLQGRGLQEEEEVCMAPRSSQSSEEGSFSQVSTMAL

| Compound | pIC50 (human FLT4) | pIC50 (human FLT3) | pIC50 (human Aurora A) |
| --- | --- | --- | --- |
| NC(=O)c1nc(-c2c(F)cccc2F)oc1Nc1ccc(S(N)(=O)=O)cc1 [Example Q-25, 2-(2,6-difluorophenyl)-5-(4-(sulfonamide)phenylamino)oxazole-4-carboxamide] | > 5.00 | > 5.00 | > 5.00 |
| CC(=O)N1CCN(Cc2ccc(-c3oc(-c4c(F)cccc4F)nc3C(N)=O)cc2)CC1 [Example F-11, 5-(4-((4-acetylpiperazin-1-yl)methyl)phenyl)-2-(2,6-difluorophenyl)oxazole-4-carboxamide] | > 5.00 | > 4.00 | > 5.00 |
| NC(=O)c1nc(-c2c(F)cccc2F)oc1-c1ccc(OCCN2CCC(C(N)=O)CC2)cc1 [Example S-10, 1-(2-(4-(4-carbamoyl-2-(2,6-difluorophenyl)oxazol-5-yl)phenoxy)ethyl)piperidine-4-carboxamide] | > 5.00 | > 5.00 | > 5.00 |
| NC(=O)c1nc(-c2c(Cl)cccc2Cl)oc1Nc1ccc(N2CCNCC2)cc1 [Example Q-35, 2-(2,6-dichlorophenyl)-5-(4-(piperazin-1-yl)phenylamino)oxazole-4-carboxamide] | > 5.00 | > 5.00 | > 5.00 |
| COc1ccc(-c2oc(-c3cn[nH]c3)nc2C(N)=O)cc1 [Example N-2, 5-(4-methoxyphenyl)-2-(1H-pyrazol-4-yl)oxazole-4-carboxamide] | > 5.00 | > 4.00 | > 5.00 |
| NC(=O)c1nc(-c2c(F)cccc2F)oc1-c1ccc(N2CCNCC2)nc1 [Example G-2, 2-(2,6-difluorophenyl)-5-(6-(piperazin-1-yl)pyridin-3-yl)oxazole-4-carboxamide dihydrochloride] | > 5.00 | > 5.00 | > 5.00 |
| NC(=O)c1nc(-c2c(F)cccc2F)oc1-c1cccnc1 [Example F-9, 2-(2,6-difluorophenyl)-5-(pyridin-3-yl)oxazole-4-carboxamideH] | > 5.00 | > 4.00 | > 4.00 |
| COc1ccc(-c2oc(Nc3ccccc3F)nc2C(N)=O)cc1 [Example R-8, 2-(2-fluorophenylamino)-5-(4-methoxyphenyl)oxazole-4-carboxamide] | > 5.00 | > 5.00 | > 5.00 |
| NC(=O)c1nc(-c2c(F)cccc2F)oc1-c1ccc(OCC(O)CN2CCCCC2)cc1 (stereo not drawn) [Example T-1, 2-(2,6-difluorophenyl)-5-(4-(2-hydroxy-3-(piperidin-1-yl)propoxy)phenyl)oxazole-4-carboxamide] | > 5.00 | > 5.00 | > 5.00 |
| COc1ccc(-c2oc(-c3ccccc3F)nc2C(N)=O)cc1 [Example M-3, 2-(2-fluorophenyl)-5-(4-methoxyphenyl)oxazole-4-carboxamide] | > 5.00 | > 4.00 | > 4.00 |
| NC(=O)c1nc(-c2c(F)cccc2F)oc1Nc1ccc(-c2cc(CO)on2)cc1 [Example Q-33, 2-(2,6-difluorophenyl)-5-(4-(5-(hydroxymethyl)isoxazol-3-yl)phenylamino)oxazole-4-carboxamide] | > 5.00 | > 4.00 | > 5.00 |
| NC(=O)c1nc(-c2c(F)cccc2F)oc1-c1ccc(OCCN2CCC(O)CC2)cc1 [Example S-4, 2-(2,6-difluorophenyl)-5-(4-(2-(4-hydroxypiperidin-1-yl)ethoxy)phenyl)oxazole-4-carboxamide] | > 5.00 | > 4.00 | > 5.00 |
| NC(=O)c1nc(-c2c(F)cccc2F)oc1Nc1ccc(-n2cncn2)cc1 [Example Q-30, 5-(4-(1H-1,2,4-triazol-1-yl)phenylamino)-2-(2,6-difluorophenyl)oxazole-4-carboxamide] | > 5.00 | > 4.00 | > 5.00 |
| NC(=O)c1nc(-c2c(F)cccc2F)oc1-c1ccc(OCC(O)CN2CCC(O)CC2)cc1 (stereo not drawn) [Example T-4, 2-(2,6-difluorophenyl)-5-(4-(2-hydroxy-3-(4-hydroxypiperidin-1-yl)propoxy)phenyl)oxazole-4-carboxamide] | > 5.00 | > 5.00 | > 5.00 |
| CN1CCN(C(=O)c2ccc(Nc3oc(-c4c(F)cccc4F)nc3C(N)=O)cc2)CC1CCO (stereo not drawn) [Example U-24, 2-(2,6-difluorophenyl)-5-(4-(2-(2-hydroxyethyl)-1-methylpiperazine-4-carbonyl)phenylamino)oxazole-4-carboxamide] | > 5.00 | > 5.00 | > 5.00 |
| NC(=O)c1nc(-c2c(F)cccc2F)oc1-c1ccc(OCCN2CCCCC2)cc1 [Example F-14, 2-(2,6-difluorophenyl)-5-(4-(2-(piperidin-1-yl)ethoxy)phenyl)oxazole-4-carboxamide] | > 5.00 | > 5.00 | > 5.00 |
| CN1CCN(C(=O)c2ccc(Nc3oc(-c4c(F)cccc4F)nc3C(N)=O)cc2)CC1CO (stereo not drawn) [Example U-25, 2-(2,6-difluorophenyl)-5-(4-(2-(hydroxymethyl)-1-methylpiperazine-4-carbonyl)phenylamino)oxazole-4-carboxamide] | > 5.00 | > 5.00 | > 5.00 |
| NC(=O)c1nc(-c2c(F)cccc2F)oc1-c1ccc(OCCCN2CCCCC2)cc1 [Example S-12, 2-(2,6-difluorophenyl)-5-(4-(3-(piperidin-1-yl)propoxy)phenyl)oxazole-4-carboxamide] | > 5.00 | > 5.00 | > 5.00 |
| CNCCC(=O)Nc1ccc(Nc2oc(-c3c(F)cccc3F)nc2C(N)=O)cc1 [Example V-3, 2-(2,6-difluorophenyl)-5-(4-(3-(methylamino)propanamido)phenylamino)oxazole-4-carboxamide] | > 5.00 | > 5.00 | > 5.00 |
| COc1ccc(-c2oc(Nc3ccccc3)nc2C(N)=O)cc1 [Example R-1, 5-(4-methoxyphenyl)-2-(phenylamino)oxazole-4-carboxamide] | > 5.00 | > 5.00 | > 5.00 |
| NC(=O)c1nc(Nc2cccnc2)oc1-c1ccc(N2CCNCC2)cc1 [Example R-14, 5-(4-(piperazin-1-yl)phenyl)-2-(pyridin-3-ylamino)oxazole-4-carboxamide] | > 5.00 | > 5.00 | > 5.00 |
| COc1ccc(-c2oc(Nc3ccccc3C)nc2C(N)=O)cc1 [Example R-5, 2-(o-toluidino)-5-(4-methoxyphenyl)oxazole-4-carboxamide] | > 5.00 | > 5.00 | > 5.00 |
| NC(=O)c1nc(-c2ccccc2F)oc1-c1ccc(OCCN2CCCCC2)cc1 [Example F-26, 2-(2-fluorophenyl)-5-(4-(2-(piperidin-1-yl)ethoxy)phenyl)oxazole-4-carboxamide] | > 5.00 | > 5.00 | > 5.00 |
| CC(=O)N1CCN(c2ccc(-c3oc(-c4c(F)cccc4F)nc3C(N)=O)cn2)CC1 [Example I-2, 5-(6-(4-acetylpiperazin-1-yl)pyridin-3-yl)-2-(2,6-difluorophenyl)oxazole-4-carboxamide] | > 5.00 | > 5.00 | > 5.00 |
| COc1ccc(-c2nc(-c3c[nH]c4ccc(OC)cc34)[nH]c2C(N)=O)cc1 [Example B-2, 2-(5-methoxy-1H-indol-3-yl)-4-(4-methoxyphenyl)-1H-imidazole-5-carboxamide] | > 5.00 | > 5.00 | > 4.00 |
| CN1CCN(C(=O)c2ccc(Nc3oc(-c4c(F)cccc4F)nc3C(N)=O)cc2)[C@@H](CO)C1 [Example U-26, (R)-2-(2,6-difluorophenyl)-5-(4-(3-(hydroxymethyl)-1-methylpiperazine-4-carbonyl)phenylamino)oxazole-4-carboxamide] | > 5.00 | > 5.00 | > 5.00 |
| NC(=O)c1nc(Nc2cnn(Cc3ccccc3)c2)oc1-c1ccc(N2CCNCC2)cc1 [Example R-17, 2-(1-benzyl-1H-pyrazol-4-ylamino)-5-(4-(piperazin-1-yl)phenyl)oxazole-4-carboxamide] | > 5.00 | > 5.00 | > 5.00 |
